Data as given in patent US20230357240A1, “NOVEL N-HETEROCYCLIC BET BROMODOMAIN INHIBITOR, AND PREPARATION METHOD THEREOF AND MEDICAL USE THEREOF” (Chengdu Easton Biopharmaceuticals Co., Ltd., priority 2020, published 2023).
Like-named read-outs stand apart in the source and are kept apart here.

What was measured:
[1] = Pharmacokinetic test in SD rats (plasma drug concentration by LC/MS/MS); type: in vivo; conditions: rat, 2 mg/kg; for AUC(0-t): read-out: Area under the curve AUClast; for half-life: read-out: Half life T1/2 (converted); for Cmax: read-out: Peak concentration Cmax; for MRT: read-out: Retention time MRT; for Tmax: read-out: Time to peak Tmax
Method: EXAMPLE 10 Pharmacokinetic Test of the Compound of the Present Application
SD rats were used as test animals. After gavage administration or tail vein injection of the compound of the present application to the rats, plasma drug concentrations were measured by the LC/MS/MS method at different moments, and pharmacokinetic features of the compound of the present application in the rats was studied.
Source of SD rats: Chengdu Dashuo Experimental Animal Co., Ltd.
Method of administration: single gavage administration and single tail vein injection
Dosage and concentration: 2 mg/kg rat body weight, 0.5 mg/mL
Formulation: 20% β-cyclodextrin solution
Sampling points: 5 min, 15 min, 30 min, 45 min, 1 h, 1.5 h, 2 h, 4 h, 5 h, 6 h, 7 h, 8 h, 9 h and 24 h
Standard curve preparation and sample treatment: 10 mg of the sample to be tested was accurately weighed and added into 1 mL of DMSO for dissolution, and the mixture was used as a stock solution. The stock solution was diluted with 50% (v/v) methanol aqueous solution to prepare standard working solutions having a concentration of 10, 20, 50, 100, 200, 500, 1000 and 2000 ng/mL, respectively. 5 μL of each of the standard working solutions was added to 45 μL of blank rat plasma to prepare standard samples containing the analyte at concentrations of 1.00, 2.00, 5.00, 10.00, 20.00, 50.00, 100.00 and 200.00 ng/mL, 200 μL of methanol (containing internal standard substance: 5 ng/mL memantine hydrochloride) was added to each standard sample, the standard samples were oscillated for 3 minutes and centrifuged at 12000 rpm at 4° C. for 10 minutes, and […] of the supernatant was collected for LC-MS/MS analysis. The test results were calculated by Analyst® software.
Preparation of quality control solution and sample treatment: 10 mg of the sample to be tested was accurately weighed and added into 1 mL of DMSO for dissolution, and the mixture was used as a stock solution. The stock solution was diluted with 50% (v/v) methanol aqueous solution to prepare quality control working solutions having a concentration of 30, 600 and 1600 ng/mL, respectively. 5 μL of each of the quality control working solutions was added to 45 μL of blank rat plasma to prepare quality control samples containing the analyte at concentrations of 3.00, 60.00 and 160.00 ng/mL, 200 μL of methanol (containing internal standard substance: 5 ng/mL memantine hydrochloride) was added to each standard sample, the standard samples were oscillated for 3 minutes and centrifuged at 12000 rpm at 4° C. for 10 minutes, and […] of the supernatant was collected for LC-MS/MS analysis. The test results were calculated by Analyst® software.

[2] = test system: MV4-11 xenograft tumor; assay: In vivo efficacy test, MV4-11 xenograft tumor model in mice; conditions: NOD-SCID mice, 5 mg/kg qd gavage, 14 days
From the text: EXAMPLE 11 In Vivo Efficacy Test of the Compound of the Present Application
Objective: To test the inhibitory effect of the test compound on the growth of xenograft tumor in nude mice with MV4-11 leukemia.
Method: NOD-SCID mice were subcutaneously inoculated with MV4-11 cells to establish an MV4-11 xenograft tumor model in mice. 16 days after inoculation (d16), average tumor volume was about 210 mm^3. According to the tumor volumes, the tumor-bearing mice were grouped in a random block method, with 6 mice in each group. The groups included a solvent control group, an ABBV-744 control group, and a test sample group, the dosage was 5 mg/kg mouse body weight, and the dose volume was 10 mL/kg mouse body weight, once a day. Each group was gavage administered for 14 consecutive days, and the solvent control group was gavage administered with a blank solvent (20% […] solution). Tumor volumes were measured twice weekly after administration of the test drug. The animals were euthanized after the test.

CCNC(=O)c1cc2c(-c3sc(C(C)(C)O)cc3N3CCc4ccccc43)cn(C)c(=O)c2[nH]1 [Compound 1, N-ethyl-4-(5-(2-hydroxypropyl-2-yl)-3-(indolin-1-yl)thiophen-2-yl)-6-methyl-7-oxo-6,7-dihydro-1H-pyrrolo[2,3-c]pyridine-2-carboxamide]
AUC(0-t) ([1]; iv, tail vein injection): 327 ng·h/mL
half-life ([1]; iv, tail vein injection): 61.8 min
Cmax ([1]; iv, tail vein injection): 276 ng/mL
MRT ([1]; iv, tail vein injection): 1.45 h
Tmax ([1]; iv, tail vein injection): 4.8 min
AUC(0-t) ([1]; po, gavage): 250 ng·h/mL
half-life ([1]; po, gavage): 49.8 min
Cmax ([1]; po, gavage): 143 ng/mL
MRT ([1]; po, gavage): 1.37 h
Tmax ([1]; po, gavage): 17.4 min
Relative tumor proliferation rate T/C [2]: 33.15%
